In US9642920B2, “Therapeutic agent delivery system and method” (Case Western Reserve University, priority 2009, dated 2017):

Tests used:
[1] = Fluorometry characterization of DOX and CD affinity (γ-CD); assay type: binding; conditions: cell culture medium, 37° C.
Method: (§1) When DOX, a fluorescent compound, forms an inclusion complex with CD, the fluorescent signal is enhanced (1) due to diminished intermolecular quenching. Increasing the amount of β- and γ-CD monomers (0 mM-16 mM) were added to a constant concentration of DOX in cell culture medium at 37° C. (n=3). Aliquots were taken for fluorescence measurements (Synergy H1) with an excitation and emission wavelength of 498 nm and 590 nm, respectively. Based on a modified Benesi-Hildebrand equation, nonlinear regression analysis was performed in MATLAB to estimate the association constants (Ka).

[2] = Fluorometry characterization of DOX and CD affinity (β-CD); assay type: binding; conditions: cell culture medium, 37° C.
Method: as §1

[3] = Surface plasmon resonance affinity between DOX and γ-CD; assay type: binding; conditions: HBS-N buffer pH 7.4
Method: (§2) Surface plasmon resonance (SPR) spectroscopy was performed on Biacore ×100 to characterize the affinity between DOX and β- and γ-CD. 6-NH2-β- and γ-CD monomers were immobilized onto CM5 sensor chips using amine-coupling chemistry. To optimize immobilization conditions, pH scouting was performed via suspending 0.1 mM of 6-NH2-β- and γ-CD monomers in various pH buffers (borate 8.5, HBS-N 7.4, PBS 7.4, acetate 5) and injecting the suspensions over the sensor chip surface. The carboxylic groups on the sensor chip surface were activated via n injection of 0.4 M EDC/0.1 M NHS. Surface immobilization in flow cell 2 proceeded with an injection of 0.1 mM of 6-amino-6-deoxy-β- or γ-CD monomers suspended in the previously determined optimal buffer, borate 8.5. Blank immobilization was performed in flow cell 1, which was used as a reference flow cell. Finally, unreacted reaction sites in both flow cells were inactivated by an injection of 1 M ethanolamine (pH 8.5). All injections were performed at […] for 7 min.
(§3) Injections of 50 mM sodium hydroxide was used to wash off any bound DOX and regenerate the sensor chip surface in between sample injections. Successful regeneration was confirmed by examining the baseline signal prior to each injection and that after regeneration. […]

U-87 MG cells = assay: Cytotoxicity of DOX against U-87 MG cells; assay type: cell-based, human; conditions: 2 μM of DOX
Method: After another 24 hr incubation, 20 μl of a 5 mg/ml MTT solution was added to each well. The cells were incubated for 3 hr and the medium was then replaced by 200 μl of DMSO. After 30 min incubation, the plate was read using Synergy H1 with an absorbance wavelength of 590 nm. The results were normalized to readings from a set of wells with cells treated with no DOX, which represented 100% survival. Percent cell death was defined as 1-percent survival.
A similar procedure was used when testing the cytoxicity of DOX against U-87 MG, a human glioblastoma cell line. However, instead of previously collected DOX solution, DOX solutions at desired concentrations were made fresh for this assay.

[4] = Surface plasmon resonance affinity between DOX and β-CD; assay type: binding; conditions: HBS-N buffer pH 7.4
Method: as §2, §3

For COc1cccc2c1C(=O)c1c(O)c3c(c(O)c1C2=O)C[C@@](O)(C(=O)CO)C[C@@H]3O[C@H]1C[C@H](N)[C@H](O)[C@H](C)O1 [DOX, doxorubicin], the “Association Constant Ka γ-CD · DOX” value [1] was 264 ± 20 M⁻¹, the “Association Constant Ka β-CD · DOX” value [2] was 153 ± 15 M⁻¹ and the “Association Constant Ka γ-CD · DOX” value [3] was 490 ± 7 M⁻¹. The “U-87 MG cells killed” value (U-87 MG cells) was about 20% and the “Association Constant Ka β-CD · DOX” value [4] was 205 ± 5 M⁻¹.
